Results published in ChEMBL document CHEMBL1126329, “Azasugar and glycal inhibitors of -L-fucosidase” (Bioorg Med Chem Lett, 1992).
pKi: −log10 of the molar value.

What follows are compounds tested against T1, Tissue alpha-L-fucosidase (Homo sapiens, UniProt P04066) (assay: Inhibition constant against Alpha-Fucosidase).
T1 sequence (P04066 whole entry): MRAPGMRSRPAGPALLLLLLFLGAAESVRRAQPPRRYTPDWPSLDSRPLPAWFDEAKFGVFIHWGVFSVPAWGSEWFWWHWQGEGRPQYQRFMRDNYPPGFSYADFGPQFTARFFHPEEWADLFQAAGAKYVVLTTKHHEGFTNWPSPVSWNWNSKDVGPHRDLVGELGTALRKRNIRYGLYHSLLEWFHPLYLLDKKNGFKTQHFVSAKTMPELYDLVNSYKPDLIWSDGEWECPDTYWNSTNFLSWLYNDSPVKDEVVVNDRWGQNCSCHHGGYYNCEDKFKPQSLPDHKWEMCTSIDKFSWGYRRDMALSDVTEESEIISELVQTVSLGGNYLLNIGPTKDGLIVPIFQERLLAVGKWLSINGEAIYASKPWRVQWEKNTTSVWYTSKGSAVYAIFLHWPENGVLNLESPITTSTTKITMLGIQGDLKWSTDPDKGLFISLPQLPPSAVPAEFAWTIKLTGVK

Q: With CC1=COC(c2ccccc2)C(C)C1O (stereo in doubt; 21) as the compound, how does the pKi read?
A: < 1.00

Q: With CN1CC(O)C(O)C(O)C1CO (configuration not stated) as the compound, how does the pKi read?
A: 2.28

Q: How did the pKi turn out when OC1C=COC(c2ccccc2)C1OCc1ccccc1 (configuration not stated) was run?
A: < 1.00

Q: With OCC1NC(CO)C(O)C1O (configuration not stated) as the compound, how does the pKi read?
A: 3.04

Q: With CC1=COC(c2ccccc2)C(C)C1O (stereo in doubt; 26) as the compound, how does the pKi read?
A: < 1.00

Q: How did the pKi turn out when C[C@@H]1OC=C[C@@H](O)[C@@H]1O was run?
A: 4.30

Q: CC(=O)C1C(O)C=COC1c1ccccc1 (configuration not stated) was tested. Which pKi did it give?
A: < 1.00

Q: CC(=O)C1C(O)C=COC1C (configuration not stated) was tested. Which pKi did it give?
A: 4.05

Q: With OC1C=COC(c2ccccc2)C1 (configuration not stated) as the compound, how does the pKi read?
A: < 1.00

Q: C[C@@H]1N[C@@H](CO)[C@H](O)[C@@H]1O was tested. Which pKi did it give?
A: 5.40

These compounds were tested against T2, Tissue alpha-L-fucosidase (Homo sapiens) (UniProt P04066).
T2 sequence (whole entry): T1 sequence (P04066 whole entry)
Description: Intecept inhibition constant against Alpha-Fucosidase; Noncompetitive inhibition

Q: Oc1ccccc1 was tested. Which Kii did it give?
A: 112 mM

Each compound was assayed against T1, Tissue alpha-L-fucosidase (assay: Inhibition constant against Alpha-Fucosidase; Uncompetitive inhibition).

Q: How did the pKi turn out when C[C@H]1OC=C[C@@H](O)[C@H]1O (stereo in doubt; 24) was run?
A: 1.64

Q: With OC1C=COC(c2ccccc2)C1O (stereo in doubt; 23) as the compound, how does the pKi read?
A: 1.08

Q: With C[C@H]1OC=C[C@@H](O)[C@H]1O (stereo in doubt; 19) as the compound, how does the pKi read?
A: 1.46

Q: OC1C=COC(c2ccccc2)C1O (stereo in doubt; 25) was tested. Which pKi did it give?
A: 1.66

Q: With CC(=O)C1C(O)C=COC1C (configuration not stated) as the compound, how does the pKi read?
A: 1.59

Target: T2, Tissue alpha-L-fucosidase (Homo sapiens)
Remark: another data set of the same source
Description: Slope inhibition constant against Alpha-Fucosidase; Uncompetitive inhibition

Q: With Oc1ccccc1 as the compound, how does the Kis read?
A: 0.18 mM
